The nature of assay [1]: The effective concentration for 50% glutamate response was measured on Group I Metabotropic glutamate receptor. The assay is classed as functional.
Assay [2] in a line: The effective concentration for 50% glutamate response was measured on Group II Metabotropic glutamate receptor. The assay is classed as functional.
Assay [3] is described as follows: (§1) Percentage of glutamate maximal response was measured on Group II Metabotropic glutamate receptor. The assay is classed as functional.
The nature of assay [4]: Percent glutamate response was measured on group 1 Metabotropic Glutamate Receptors.
Assay [5] in a line: as §1. The assay is classed as functional. This is another data set of the same source.

A value given as a limit tells only on which side of the number the result lay.

For `N[C@@]1(C(=O)O)CC[C@H](C(=O)O)C1`, the EC50 in assay [1] was greater than 300 µM; in assay [2], 13 µM.
`NC(C(=O)O)C1[C@@H](C(=O)O)[C@@H]1C(=O)O` (stereo not given in full) registered an EC50 in assay [3] of 0.1 µM.
Consider `N[C@@]1(C(=O)O)CC[C@@H](C(=O)O)C1`, for which the figures for the EC50 in assay [1] and in assay [2] were 9.3 µM and 18 µM, respectively.
The matching figures for `N[C@]1(C(=O)O)CC[C@H](C(=O)O)C1`: 127 µM and 110 µM.
With `NC1(C(=O)O)C2CCC1C(C(=O)O)C2` (stereo not given), in assay [4], the Response was 10%. The midpoint of the response in assay [3], the EC50, lay at 30 µM.
Regarding `N[C@H](C(=O)O)c1cc(O)cc(O)c1`, the EC50 in assay [1] turned out to be 6.6 µM.
Consider `N[C@@]1(C(=O)O)CN[C@@H](C(=O)O)C1`, for which the results for the EC50 in assay [1] and in assay [2] were greater than 1000 µM and 3.5 µM, respectively.
In the same order, the values of `O=C(O)[C@H]1C[C@H](C(=O)O)N1` are 189 µM and greater than 100 µM.
In assay [5], `N[C@H](C(=O)O)c1cccc(O)c1` yielded a Response of less than 15%.
Consider `N[C@@H](C(=O)O)[C@H]1CC1C(=O)O` (single isomer, unassigned), for which the EC50 in assay [1] was determined as 5 µM; in assay [2], 0.3 µM.
As to `N[C@@H](C(=O)O)[C@@H]1CC1C(=O)O` (single isomer, unassigned), the EC50 in assay [1] was found to be 20 µM.
As to `NC1(C(=O)O)CC2CCC1C2C(=O)O` (stereo in doubt; 8), the Response in assay [5] was 50%.
Consider `NC1(C(=O)O)CC2CCC1C2C(=O)O` (stereo in doubt; 9), for which the Response is 12% in assay [4] and 50% in assay [5].
On to `NC1(C(=O)O)CC2CC1C2C(=O)O` (stereo in doubt; 12), for which the EC50 in assay [1] is 1.6 µM; in assay [2] it was 0.33 µM.
The matching figures for `NC1(C(=O)O)CC2CC1C2C(=O)O` (stereo in doubt; 21): 121 µM and 54 µM.
The matching figures for `NC1(C(=O)O)CC2CC1C2C(=O)O` (stereo in doubt; 22): 232 µM and 38 µM.
In the same order, the values of `N[C@@]1(C(=O)O)CC[C@H]2[C@H](C(=O)O)[C@H]21` [EGLUMETAD] are greater than 1000 µM and 0.032 µM.
As for `N[C@@H](CCC(=O)O)C(=O)O` [GLUTAMIC ACID], the EC50 in assay [1] amounted to 4.9 µM; in assay [2] it was 0.29 µM.
As to `N[C@H](C(=O)O)c1cc(O)no1` [IBOTENIC ACID], the figures for the EC50 in assay [1] and in assay [2] were 6 µM and 50 µM, respectively.
Turning to `N[C@@H](Cn1oc(=O)[nH]c1=O)C(=O)O` [QUISQUALATE], the EC50 in assay [1] amounted to 0.9 µM; in assay [2] it was 100 µM.

The record behind these values is ChEMBL document CHEMBL1132315, “Pharmacophore models of group I and group II metabotropic glutamate receptor agonists. Analysis of conformational, steric, and topological parameters affecting potency and selectivity” (J Med Chem, 1999).
